According to patent US20060089317A1, “Treatment of metastatic breast cancer with anthracyclines, and taxanes” (The University Of Manitoba, priority 2002, published 2006):

System: patients with metastatic breast cancer
Settings: DPPE pretreatment
Experimental: In the specific Phase II clinical trial described herein, there was employed 6 mg/kg of DPPE in the form of its hydrochloride salt, administered intravenously as an aqueous solution thereof over 80 minutes, with the last 20 minutes being accompanied by infusion of the chemotherapeutic agents doxorubicin or epirubicin in combination with Taxol or Taxotere followed by the intravenous administration of an aqueous solution at a dose of 2.5 mg/kg of DPPE for 180 minutes accompanied by the infusion of Taxol or for 60 minutes accompanied by the infusion of Taxotere.
In the specific Phase II clinical trial described herein, there was employed 50 mg/M^2 of doxorubicin/epirubicin and either 175 mg/^2 Taxol or 75 mg/M^2 Taxotere administered over the last 20 minutes of infusion of the DPPE solution and over a further 180 minutes for Taxol or 60 minutes for Taxotere, accompanied by infusion of a 2.5 mg/kg of DPPE solution.
29 patients with metastatic breast cancer were treated with a combination of DPPE and epirubicin/Taxol (N=22), DPPE and doxorubicin/Taxol (N=6) or a combination of DPPE and epirubicin/Taxotere (N=1). […]

CCN(CC)CCOc1ccc(Cc2ccccc2)cc1 [DPPE, N,N-diethyl-2-[4-(phenylmethyl)-phenoxy]ethanamine]
TTP in comparison to patients not receiving DPPE treatment: did not improve | overall survival of patients receiving DPPE (compared with published studies): significantly improved
